Here are results for two compounds from US6737383B1, “Herbicidal oxadiazolidines” (priority 1999, dated 2004).

Structures are written as SMILES.

Assay [1] concerns sourgrass. Put plainly: Test D sourgrass. It is filed as in vivo, Trichachne insularis. The conditions noted are these: Preemergence, 0 to 100 scale. Put shortly:
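Greenhouse pots, seeds in sandy loam; compounds formulated in non-phytotoxic solvent with surfactant; preemergence treatments went on the soil surface within one day of planting. Injury rated visually 14 to 21 days after application on a 0 (none) to 100 (complete control) scale.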

In assay [2] the test system is arrowleaf sida. Put plainly: Test C postemergence arrowleaf sida. The conditions noted are these: 0 to 100 scale, 0 no effect, 100 complete control. It is filed as in vivo, Sida rhombifolia. How it is done: (§1) Compounds evaluated in this test were formulated in a non-phytotoxic solvent mixture which included a surfactant and applied to plants that were grown for various periods of time before treatment (postemergence application). A mixture of sandy loam soil and greenhouse potting mix in a 60:40 ratio was used for the postemergence test.
(§2) Plantings of these crops and weed species were adjusted to produce plants of appropriate size for the postemergence test. All plant species were grown using normal greenhouse practices. Crop and weed species include arrowleaf sida (Sida rhombifolia), barnyardgrass (Echinochloa crus-galli), cocklebur (Xanthium strumarium), common ragweed (Ambrosia elatior), corn (Zea mays), cotton (Gossypium hirsutum), eastern black nightshade (Solanum ptycanthum), fall panicum (Panicum dichotomiflorum), field bindweed (Convolvulus arvensis), giant foxtail (Setaria faberii), hairy beggarticks (Bidens pilosa), ivyleaf morningglory (Ipomoea hederacea), johnsongrass (Sorghum halepense), ladysthumb smartweed (Polygonum persicaria), lambsquarters (Chenopodium album), large crabgrass (Digitaria sanguinalis), purple nutsedge (Cyperus rotundus), redroot pigweed (Amaranthus retroflexus), soybean (Glycine max), surinam grass (Brachiaria decumbens), velvetleaf (Abutilon theophrasti) and wild poinsettia (Euphorbia heterophylla).
(§3) Treated plants and untreated controls were maintained in a greenhouse for approximately 14, to 21 days, after which all treated plants were compared to untreated controls and visually evaluated. Plant response ratings, summarized in Table C, were based upon a 0 to 100 scale where 0 was no effect and 100 was complete control. A dash response (−) means no test result.

Assay [3] has as its system barnyardgrass. The assay can be described thus: Test C postemergence barnyardgrass. It is filed as in vivo, Echinochloa crus-galli. The conditions noted are these: 0 to 100 scale, 0 no effect, 100 complete control. Put shortly: (§4)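 Greenhouse postemergence test: compound applied in solvent/surfactant formulation to established plants; visual scoring 0–100 against untreated controls after roughly two to three weeks (14–21 days).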

Assay [4] concerns common ragweed. The assay can be described thus: Test C postemergence common ragweed. It is filed as in vivo, Ambrosia elatior. The conditions noted are these: 0 to 100 scale, 0 no effect, 100 complete control. How it is done: as §1, §2, §3
Assay [5] concerns giant foxtail. Put plainly: Test C postemergence giant foxtail. It is filed as in vivo, Setaria faberii. The conditions noted are these: 0 to 100 scale, 0 no effect, 100 complete control. The procedure:
as §1, §2, §3

Assay [6] has as its system johnsongrass. Put plainly: Test C postemergence johnsongrass. It is filed as in vivo, Sorghum halepense. The conditions noted are these: 0 to 100 scale, 0 no effect, 100 complete control. How it is done: as §1, §2, §3
For assay [7], the system named is large crabgrass. The assay can be described thus: Test C postemergence large crabgrass. It is filed as in vivo, Digitaria sanguinalis. The conditions noted are these: 0 to 100 scale, 0 no effect, 100 complete control. Summed up:
as §4

The subject of assay [8] is wild poinsettia. Put plainly: Test C postemergence wild poinsettia. It is filed as in vivo, Euphorbia heterophylla. The conditions noted are these: 0 to 100 scale, 0 no effect, 100 complete control. Summed up:
as §4

For assay [9], the system named is Amaranthus rudis (AMATA). Put plainly: Test F preemergence, alone and in mixture with rimsulfuron, AMATA. It is filed as in vivo. The conditions noted are these: 21 days after treatment, 0-100 scale. The procedure: Abutilon theophrasti (ABUTH), Chenopodium album (CHEAL), Amaranthus rudis (AMATA), Setaria faberii (SETFA), Panicum dichotomiflorum (PANDI), and Digitaria sanguinalis (DIGSA) were grown from seed in pots of an artificial potting mixture in a greenhouse. Compounds of the present invention were applied at 70 and 105 g ai/ha preemergence. Rimsulfuron was applied at 8.8 and 17.5 g ai/ha. Mixtures of the compounds of the present invention and rimsulfuron were also applied.
(§5) Following application, the plants were maintained by watering as needed. A fertilizer solution of Peter's 20-20-20 (10 pounds/5 gallons of water) plus Sprint 330, a Iron Chelate micronutrient, (113.5 grams/5 gallons of water) was injected into the water with an Anderson fertilizer injection system to provide approximately 219 ppm of nitrogen with each watering. Artificial lighting was used to supplement natural light to produce a 14 hour photoperiod and: an additional one hour light period was used between 1:00 am to 2:00 am for a night interruption. Greenhouse temperatures were targeted for 27° C. in the day and 21° C. at night. At 21 days after treatment, all plants were evaluated for injury as compared to control plants that were sprayed only with non-phytotoxic solvent.
Colby's equation was used to calculate the expected additive herbicidal effect of the mixtures of Compound 21 and the mixture partners listed above. […]

Assay [10] deals with certain weeds. The assay can be described thus: Test F overall statement on synergism with rimsulfuron (Colby's equation). It is filed as in vivo. The conditions noted are these: combinations with rimsulfuron, preemergence. The procedure: as §5, with “Abutilon theophrasti (ABUTH), Chenopodium album (CHEAL), Amaranthus rudis (AMATA), Setaria […]), Panicum dichotomiflorum (PANDI), and Digitaria sanguinalis (DIGSA) were grown from seed in pots of an artificial potting mixture in a greenhouse. Compounds of the present invention were applied at 70 and 105 g ai/ha preemergence. Rimsulfuron was applied at 8.8 and 17.5 g ai/ha. Mixtures of the compounds of the present invention and rimsulfuron were also applied. Following” for “Following”, “solvent. […] Colby's equation was used to calculate the expected additive herbicidal effect of the mixtures of Compound 21 and the mixture partners listed above. […]” for “solvent.”

The mark [11] stands for this setting: Rate 64 g/ha, 0 no injury, 100 complete control.

With `Cc1ccc(-n2c(=O)on(C(=O)N(c3ccc(F)cc3F)C(C)C)c2=O)c(C)c1` [Compound 24], the “Plant response rating, Sourgrass” value in [1] (Rate 32 g/ha, 0 no injury, 100 complete control) stood at 40; in assay [1] (setting [11]), 85; in assay [1] (Rate 250 g/ha), 100; in assay [1] (Rate 500 g/ha) it was 100. Moreover, the “Sourgrass plant response rating” value in assay [1] (setting [11]) came to 100; in assay [1] (Rate 125 g/ha, 0 no injury, 100 complete control), 100.

As for `CC(C)N(C(=O)n1oc(=O)n(C(C)C)c1=O)c1ccccc1` [Compound 113], the “Plant response rating Arrowleaf sida” value is on record as 30 in assay [2] (Rate 140 g/ha), 40 in [2] (Rate 280 g/ha), 70 in assay [2] (Rate 560 g/ha) and 95 in assay [2] (Rate 1120 g/ha). The “Plant response rating, Barnyardgrass” value in assay [3] (Rate 140 g/ha) stood at 80; in [3] (Rate 280 g/ha) it was 80; in assay [3] (Rate 560 g/ha), 85; in [3] (Rate 1120 g/ha), 95. In addition, the “Plant response rating Common ragweed” value in [4] (Rate 140 g/ha) stood at 5; in [4] (Rate 280 g/ha), 5; in [4] (Rate 1120 g/ha), 20. Further, the “Plant response rating, Giant foxtail” value in assay [5] (Rate 140 g/ha) was found to be 20; in [5] (Rate 280 g/ha), 70; in assay [5] (Rate 560 g/ha) it was 80; in [5] (Rate 1120 g/ha), 80. For the same compound, the “Plant response rating, Johnsongrass” value in assay [6] (Rate 140 g/ha) is reported as 0; in assay [6] (Rate 280 g/ha), 20; in assay [6] (Rate 560 g/ha), 60; in [6] (Rate 1120 g/ha) it was 95. The “Plant response rating, Large crabgrass” value in assay [7] (Rate 140 g/ha) amounted to 0; in assay [7] (Rate 280 g/ha), 85; in assay [7] (Rate 560 g/ha), 95; in [7] (Rate 1120 g/ha) it was 95. The “Plant response rating Wild poinsettia” value in assay [8] (Rate 140 g/ha) is on record as 10; in assay [8] (Rate 280 g/ha) it was 50; in assay [8] (Rate 560 g/ha), 80; in [8] (Rate 1120 g/ha) it was 95. Further, the “AMATA Observed” value in assay [9] (Alone: Cmpd. rate 70, Rimsulfuron 0) came out at 35%; in assay [9] (Alone: Cmpd. rate 105, Rimsulfuron 0), 25%. Further, the “Weed control of combination with rimsulfuron compared with expectation from Colby's equation” value in assay [10] was “better control of certain weeds than expected”.
